# Patent publication US20250255867A1 (Kadmon Corporation, LLC, priority 2022, published 2025)
# Tested on: subjects with BOS
# Assay: Example 3: FEV1 evaluation in BOS
# Format: in vivo, human
# Method: Patients with BOS were identified as: 1) % predicted forced expiratory volume in 1 second (% FEV1) of £79% at enrollment, and 2) clinician attribution of lung disease due to cGVHD.
# In Example 1, lung function assessments were conducted at baseline and on Day 1 of each cycle for patients with suspected of known lung involvement. In Example 2, lung function assessments were conducted at baseline and at the time of response assessments: Day 1 of cycles 2-5 and then on Day 1 of every other cycle thereafter.
smiles,measurement,setting,value
"CC(C)NC(=O)COc1cccc(-c2nc(Nc3ccc4[nH]ncc4c3)c3ccccc3n2)c1 [Belumosudil, 2-{3-[4-(1H-indazol-5-ylamino)-2-quinazolinyl]phenoxy}-N-(propan-2-yl) acetamide]",Subjects with ^3 5% absolute improvement in % FEV1 from baseline,59 subjects,39%
same,Subjects with ^3 10% absolute improvement in % FEV1 from baseline,59 subjects,22%
same,Subjects with at least a 200 mL improvement in FEV1 from baseline,Example 2 subjects only,36%
same,Subjects with ^3 5% absolute improvement in % FEV1,baseline NIH lung score 1,57%
same,Subjects with ^3 5% absolute improvement in % FEV1,baseline NIH lung score 2,13%
same,Subjects with ^3 5% absolute improvement in % FEV1,baseline NIH lung score 3,50%
same,Subjects with at least a 200 mL improvement in FEV1,baseline lung score 1,41%
same,Subjects with at least a 200 mL improvement in FEV1,baseline lung score 2,31%
same,Subjects with 200 mL improvement in FEV1,non-responders,19%
same,Subjects with ^3 5% absolute improvement in % FEV1,non-responders,18%
same,Subjects with 200 mL improvement in FEV1,responders by NIH criteria,66%
same,Subjects with ^3 5% absolute improvement in % FEV1,responders by NIH criteria,84%
